According to patent US9114133B2, “Method of improving diastolic dysfunction” (U.S. DEPT. OF VETERANS AFFAIRS, priority 2006, dated 2015):
Marks after values point to notes of the source that are not given here.

Key:
[1] = tested on: isolated single myocytes; assay: Residual sarcomere length of isolated myocytes with BDM; type: cell-based, mouse; conditions: BDM 10 mM
Protocol: 2,3-Butanedione monoxime (BDM), a cross-bridge inhibitor, was used to measure residual sarcomere length. BDM inhibits the Ca^2+ regulated attachment of the cross-bridges and force-generation of the attached cross-bridges (Reference 16). Isolated single myocytes were loaded on an chamber and perfused with BDM (10 mM) in Tyrode's solution at 37° C. Sarcomere length was again measured while the myocytes were field-stimulated as described above.

[2] = tested on: DOCA-salt mouse model (diastolic dysfunction) and sham mice; assay: Transthoracic echocardiography, in vivo BH4 treatment in DOCA-salt mice; conditions: BH4 diet 5 mg BH4/day day 11-18, mean ± SEM
Protocol: Previously, I have shown that the DOCA-salt mouse model leads to mild hypertension, NOS uncoupling, myocardial oxidative stress, and diastolic dysfunction (Reference 10). A gradual and mild elevation in blood pressure was induced by unilateral nephrectomy, subcutaneous implantation of a controlled release deoxycorticosterone acetate (DOCA) pellet (0.7 mg/d; Innovative Research of America, Sarasota, Fla.), and substituting drinking water with 1.05% saline. Control animals underwent a sham operation, had placebo pellet implantation, and received water without salt.
Mice were divided into two groups which received a control diet (sham N=7; DOCA-salt N=10) and two groups which received a BH4 supplemental diet of 5 mg BH4/day (Research Diets Inc, New Brunswick, N.J.; sham+BH4 N=8; DOCA-salt+BH4 N=8). The supplemental diet began on day 11 after surgery, and continued until day 18, when the mice were analyzed and sacrificed.
Mitral pulse wave Doppler flow and tissue Doppler imaging (TDI) were performed using the Vevo 770 high-resolution in vivo imaging system (Visual Sonics, Toronto, Canada) (Reference 10). Mice were anesthetized with 1-1.5% isoflurane until a heart rate of around 350-390 beats/min was achieved because measures of diastolic function are sensitive to heart rate and loading conditions. M-mode images in the parasternal long axis and the left ventricle (LV) short-axis views at the mid-papillary level were taken. Measurements were averaged from five consecutive beats during expiration. The images for each mouse were recorded for at least 5 s (30-40 cardiac cycles) from which three to five representative cycles with the highest quality imaging were selected. Percent fractional shortening (% FS) was calculated as 100×(LVEDd)−(LVESd)/(LVEDd) and percent LV ejection fraction (% EF) was calculated as 100×[(7/2.4+LVEDd)×LEDd^3]−[(7/2.4+LVESd)×LVESd^3]/[(7/2.4+LVEDd)×LEDd^3]. Doppler measurements were made at the tips of the mitral leaflets for diastolic filling profiles in the apical four-chamber view. Mitral inflow velocities, peak early (E) and late (A) were measured by conventional pulsed-wave Doppler. TDI was used to determine the mitral annulus longitudinal velocities (Sm, E′, and A′) (Reference 10). Baseline images before treatment were acquired to confirm diastolic dysfunction in DOCA-salt mice. Subsequently, the mice were fed with BH4, followed by echocardiography at day 18.

[3] = tested on: isolated ventricular myocytes; assay: Isolated myocyte contraction and relaxation parameters (IonOptix); type: cell-based, mouse; conditions: 1.0 Hz, 10 V, external Ca2+ 1.2 mmol/L
[4] = tested on: MnSOD deficient cardiomyocytes; assay: Contraction and relaxation of cardiomyocytes from heterozygous MnSOD knockout mice (IonOptix); type: cell-based, mouse; conditions: BH4 treatment
Protocol: Echocardiography was used to determine DD in heterozygous MnSOD knockout mice. The mitral annulus longitudinal velocities (E′, and A′) were determined by pulsed-wave tissue Doppler from the apical four-chamber view. Mitochondrial ROS were measured by confocal microscopy and flow cytometry from isolated cardiomyocytes using MitoSOX Red. NO was measured by DAF-FM and by the Griess reaction. Contraction and relaxation impairment were assessed by lonOptix System.

[5] = myocytes from DOCA-salt + BH4 mice

Compound: CC(=O)C(C)=NO [BDM, 2,3-Butanedione monoxime]
- Residual sarcomere length ([1]; myocytes after BH4 treatment): no effect
- Residual sarcomere length ([1]; myocytes of sham and DOCA-salt groups): increased

Compound: C[C@H](O)[C@H](O)[C@H]1CNc2nc(N)[nH]c(=O)c2N1 [BH4, tetrahydrobiopterin]
- A′ (tissue Doppler) ([2]; DOCA-salt mice): 15.2 ± 1.0 mm/s
- EF (ejection fraction) ([2]; DOCA-salt mice): 54.5 ± 5.0%
- E′ (tissue Doppler) ([2]; DOCA-salt mice): 16.8 ± 1.3†^ mm/s
- FS (fractional shortening) ([2]; DOCA-salt mice): 26.6 ± 2.9%
- LVEDD ([2]; DOCA-salt mice): 3.67 ± 0.14 mm
- LVESD ([2]; DOCA-salt mice): 2.65 ± 0.21 mm
- MV A ([2]; DOCA-salt mice): 367.8 ± 48.3 mm/s
- MV E ([2]; DOCA-salt mice): 555.0 ± 35.1†^ mm/s
- MV E/A ratio ([2]; DOCA-salt mice): 1.71 ± 0.33
- Sm ([2]; DOCA-salt mice): 15.8 ± 1.5
- A′ (tissue Doppler) ([2]; sham mice): 21.1 ± 1.9 mm/s
- E/E′ ratio ([2]; sham mice): 34.91 ± 6.81&
- EF (ejection fraction) ([2]; sham mice): 51.1 ± 2.8%
- E′ (tissue Doppler) ([2]; sham mice): 24.4 ± 2.2†& mm/s
- E′/A′ ratio ([2]; sham mice): 1.17 ± 0.06&
- FS (fractional shortening) ([2]; sham mice): 24.7 ± 1.6%
- LVEDD ([2]; sham mice): 4.05 ± 0.10 mm
- LVESD ([2]; sham mice): 3.01 ± 0.11 mm
- MV A ([2]; sham mice): 357.5 ± 31.7 mm/s
- MV E ([2]; sham mice): 738.1 ± 31.1†& mm/s
- MV E/A ratio ([2]; sham mice): 2.28 ± 0.33
- Sm ([2]; sham mice): 22.9 ± 1.5
- Diastolic SL [3, 5]: 1.77±0.01 μm
- Relengthening velocity [3, 5]: 2.39 ± 0.18 μm/s
- Sarcomere shortening [3, 5]: 9.48 ± 0.49%
- Shortening velocity [3, 5]: −2.42 ± 0.14 μm/s
- Systolic SL [3, 5]: 1.60 ± 0.01 μm
- Time to 50% relengthening [3, 5]: 240.3 ± 7.5 ms
- Time to 50% shortening [3, 5]: 47.5 ± 0.7 ms
- Time to 90% relengthening [3, 5]: 300.0 ± 13.4 ms
- Time to 90% shortening [3, 5]: 93.5 ± 1.8 ms
- Time to peak shortening [3, 5]: 146.2 ± 0.3 ms
- Diastolic SL ([3]; myocytes from sham + BH4 mice): 1.80 ± 0.01#†& μm
- Relaxation constant, τ ([3]; myocytes from sham + BH4 mice): 0.07 ± 0.00&
- Relengthening velocity ([3]; myocytes from sham + BH4 mice): 2.75 ± 0.18#†& μm/s
- Sarcomere shortening ([3]; myocytes from sham + BH4 mice): 10.64 ± 0.61& %
- Shortening velocity ([3]; myocytes from sham + BH4 mice): −2.90 ± 0.16#†& μm/s
- Systolic SL ([3]; myocytes from sham + BH4 mice): 1.61 ± 0.01& μm
- Time to 50% relengthening ([3]; myocytes from sham + BH4 mice): 204.7 ± 6.0&# ms
- Time to 50% shortening ([3]; myocytes from sham + BH4 mice): 45.6 ± 0.8 ms
- Time to 90% relengthening ([3]; myocytes from sham + BH4 mice): 258.7 ± 11.7&# ms
- Time to 90% shortening ([3]; myocytes from sham + BH4 mice): 87.3 ± 1.8&# ms
- Time to peak shortening ([3]; myocytes from sham + BH4 mice): 133.6 ± 0.3& ms
- Relaxation constant (tau) [4]: 0.73±0.01
- Resting sarcomere length [4]: 1.77±0.01 μm
